Among the data in ChEMBL document CHEMBL4619739, “Synthesis and biological evaluation of heterocyclic bis-aryl amides as novel Src homology 2 domain containing protein tyrosine phosphatase-2 (SHP2) inhibitors” (Bioorg Med Chem Lett, 2020) are IC50, inhibition and Ratio IC50 values, retold here.

Activity calls are given as the source filed them. The calls are words filed in the database; no cut-off is given here.

For orientation: IC50 means the concentration at which inhibition is half-maximal. One may read the inhibition as the change of the read-out against control, counted positive when it falls.

Test [1] concerns the target T1, Tyrosine-protein phosphatase non-receptor type 1 (Homo sapiens, UniProt P18031).
T1 sequence (P18031 whole entry): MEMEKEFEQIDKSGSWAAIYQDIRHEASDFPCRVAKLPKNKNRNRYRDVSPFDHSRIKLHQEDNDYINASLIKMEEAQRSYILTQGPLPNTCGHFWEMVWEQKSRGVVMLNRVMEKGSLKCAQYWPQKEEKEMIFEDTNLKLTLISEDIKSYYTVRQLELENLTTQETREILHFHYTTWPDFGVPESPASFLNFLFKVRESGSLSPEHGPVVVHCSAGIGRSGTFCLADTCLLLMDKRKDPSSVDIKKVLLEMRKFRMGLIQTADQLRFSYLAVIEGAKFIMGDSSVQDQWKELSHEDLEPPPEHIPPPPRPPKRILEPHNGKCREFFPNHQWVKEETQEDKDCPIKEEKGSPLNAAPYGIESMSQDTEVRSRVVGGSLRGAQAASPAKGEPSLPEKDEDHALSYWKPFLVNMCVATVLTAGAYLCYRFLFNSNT
Briefly: Inhibition of GST-tagged PTP1B (unknown origin) using pNPP as substrate measured for 3 mins by colorimetric assay.

Test [2] concerns the target T2, Tyrosine-protein phosphatase non-receptor type 11 (Homo sapiens, UniProt Q06124).
T2 sequence (Q06124 whole entry): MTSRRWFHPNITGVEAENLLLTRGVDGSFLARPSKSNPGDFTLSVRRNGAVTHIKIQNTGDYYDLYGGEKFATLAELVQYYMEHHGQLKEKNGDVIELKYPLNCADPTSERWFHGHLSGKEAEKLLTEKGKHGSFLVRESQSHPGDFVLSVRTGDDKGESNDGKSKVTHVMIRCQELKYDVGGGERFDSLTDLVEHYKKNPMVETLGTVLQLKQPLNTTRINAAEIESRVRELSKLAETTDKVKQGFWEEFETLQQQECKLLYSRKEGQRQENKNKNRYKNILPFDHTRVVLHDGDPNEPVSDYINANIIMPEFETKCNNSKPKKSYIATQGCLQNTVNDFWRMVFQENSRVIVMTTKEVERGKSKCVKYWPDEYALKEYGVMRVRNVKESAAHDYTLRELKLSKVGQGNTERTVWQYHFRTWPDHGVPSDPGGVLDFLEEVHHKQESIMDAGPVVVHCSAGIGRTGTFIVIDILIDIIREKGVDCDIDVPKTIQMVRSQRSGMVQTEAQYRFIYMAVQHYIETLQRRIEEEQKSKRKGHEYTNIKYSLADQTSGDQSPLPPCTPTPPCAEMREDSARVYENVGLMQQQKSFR
Briefly: Inhibition of SHP2 (unknown origin) using 3-o-methylfluorescein phosphate as substrate by fluorescence assay.

The target of test [3] is T3, Tyrosine-protein phosphatase non-receptor type 2 (Homo sapiens, UniProt P17706).
T3 sequence (P17706 whole entry): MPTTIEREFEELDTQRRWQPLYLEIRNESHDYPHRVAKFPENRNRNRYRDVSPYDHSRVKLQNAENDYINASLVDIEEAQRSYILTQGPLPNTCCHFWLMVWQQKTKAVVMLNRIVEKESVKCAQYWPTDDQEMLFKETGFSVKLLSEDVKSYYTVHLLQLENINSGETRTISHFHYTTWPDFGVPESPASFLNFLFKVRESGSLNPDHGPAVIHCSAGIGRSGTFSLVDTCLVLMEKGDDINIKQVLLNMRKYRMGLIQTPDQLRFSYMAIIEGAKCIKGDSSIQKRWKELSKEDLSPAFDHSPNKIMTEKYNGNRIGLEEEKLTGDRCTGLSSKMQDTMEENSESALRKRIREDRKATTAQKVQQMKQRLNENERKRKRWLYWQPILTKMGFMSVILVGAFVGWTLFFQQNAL
Briefly: Inhibition of GST-tagged TCPTP (unknown origin) using pNPP as substrate measured for 3 mins by colorimetric assay.

For test [4], the target named is Tyrosine-protein phosphatase non-receptor type 6 (Homo sapiens) (UniProt P29350). Description: Inhibition of SHP1 (unknown origin) at 20 ug/ml using 3-o-methylfluorescein phosphate as substrate by fluorescence assay relative to control.
Chain of Tyrosine-protein phosphatase non-receptor type 6 (Homo sapiens) (P29350 whole entry): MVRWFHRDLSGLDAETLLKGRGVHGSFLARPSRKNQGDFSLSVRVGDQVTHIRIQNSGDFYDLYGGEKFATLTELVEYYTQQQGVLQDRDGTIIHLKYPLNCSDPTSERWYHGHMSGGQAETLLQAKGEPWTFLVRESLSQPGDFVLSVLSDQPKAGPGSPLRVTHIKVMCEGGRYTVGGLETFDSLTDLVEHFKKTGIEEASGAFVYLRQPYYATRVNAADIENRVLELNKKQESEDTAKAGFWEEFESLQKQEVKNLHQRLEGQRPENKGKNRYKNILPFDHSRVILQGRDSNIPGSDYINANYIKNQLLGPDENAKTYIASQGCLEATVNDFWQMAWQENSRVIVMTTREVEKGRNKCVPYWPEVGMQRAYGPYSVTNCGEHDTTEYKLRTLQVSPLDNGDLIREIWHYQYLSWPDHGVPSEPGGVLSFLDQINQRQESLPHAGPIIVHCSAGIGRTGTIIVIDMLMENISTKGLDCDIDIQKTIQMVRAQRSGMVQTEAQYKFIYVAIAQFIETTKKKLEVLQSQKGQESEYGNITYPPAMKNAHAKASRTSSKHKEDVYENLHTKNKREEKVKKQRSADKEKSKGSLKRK
The target in test [5] is T4, Tyrosine-protein phosphatase non-receptor type 11 (Homo sapiens) (UniProt Q06124).
T4 sequence (whole entry): T2 sequence (Q06124 whole entry)
Briefly: Reversible inhibition of SHP2 (unknown origin) using DiFMUP as substrate by enzyme kinetics based dialysis assay.

The species entered for test [6] is Homo sapiens. Description: Selectivity index, ratio of IC50 for SHP2 (unknown origin) to IC50 for GST-tagged TCPTP (unknown origin).
Test [7] addresses T4, Tyrosine-protein phosphatase non-receptor type 11 (Homo sapiens). Briefly: Competitive inhibition of SHP2 (unknown origin) assessed as increase in Km with constant Vmax using DiFMUP as substrate by Lineweaver-Burk plot analysis.
Test [8] has as its target T5, Tyrosine-protein phosphatase non-receptor type 1 (Homo sapiens) (UniProt P18031).
T5 sequence (whole entry): T1 sequence (P18031 whole entry)
Description: Inhibition of GST-tagged PTP1B (unknown origin) at 20 ug/ml using pNPP as substrate measured for 3 mins by colorimetric assay relative to control.

The species entered for test [9] is Homo sapiens. Briefly: Selectivity index, ratio of IC50 for SHP1 (unknown origin) to IC50 for SHP2 (unknown origin).
The target in test [10] is T4, Tyrosine-protein phosphatase non-receptor type 11 (Homo sapiens). Briefly: Fast binding inhibition of SHP2 (unknown origin) using DiFMUP as substrate by enzyme kinetics assay.
Test [11] shares this target. Description: Inhibition of SHP2 (unknown origin) at 20 ug/ml using 3-o-methylfluorescein phosphate as substrate by fluorescence assay relative to control.

`O=C(Nc1ccccc1)c1ccc(-c2ccc(C(=O)Nc3ccccc3)o2)cc1`: the IC50 worked out at 3.48 µM in test [1] and 4.63 µM in test [2].
As for `O=C(Nc1ccc(F)cc1)c1ccc(-c2ccc(C(=O)Nc3ccc(F)cc3)s2)cc1`, the IC50 in test [3] turned out to be 9.16 µM; in [2], 2.63 µM. Moreover, the inhibition in test [4] and in [8] was below 50% each time. Moreover, the inhibition result in test [5], in test [7] and in [10] was “Active” each time. Further, the Ratio IC50 was 4 in the test listed under Homo sapiens [6] and above 43.8 in the test listed under Homo sapiens [9].
Consider `O=C(NC1CCCCC1)c1ccc(-c2ccc(C(=O)NC3CCCCC3)o2)cc1`, for which the inhibition in test [11] and in test [8] was below 50% in each case.
In turn, `O=C(Nc1ccccc1)c1ccc(-c2ccc(C(=O)Nc3ccccc3)[nH]2)cc1` registered an IC50 in test [1] of 23.4 µM. The inhibition in test [11] is below 50%.
On to `O=C(NC1CCCCC1)c1ccc(-c2ccc(C(=O)NC3CCCCC3)s2)cc1`, for which the IC50 in test [1] worked out at 4.88 µM; in test [2], 10.7 µM.
As to `O=C(Nc1ccc(Cl)cc1)c1ccc(-c2ccc(C(=O)Nc3ccc(Cl)cc3)o2)cc1`, the IC50 in [1] came to 15.7 µM. The inhibition in [11] is below 50%.
For `O=C(Nc1ccc(F)cc1)c1ccc(-c2ccc(C(=O)Nc3ccc(F)cc3)o2)cc1`, in that order: 10.5 µM and below 50%.
Consider SODIUM ORTHOVANAD, for which the Ratio IC50 in the test filed under Homo sapiens [9] is 1.92.
Consider `O=C(Nc1ccc(F)cc1)c1ccc(-c2ncc(C(=O)Nc3ccc(F)cc3)s2)cc1`, for which the inhibition in [8] was below 50%. This compound gave an IC50 in test [2] of 4.63 µM.
For `O=C(Nc1ccc(F)cc1)c1ccc(-c2ccc(C(=O)Nc3ccc(F)cc3)[nH]2)cc1`, the IC50 in test [1] is 28.3 µM; in test [2], 20.3 µM.
With `O=C(Nc1ccccc1)c1ccc(-c2ncc(C(=O)Nc3ccccc3)s2)cc1`, the IC50 in test [1] is 7.94 µM. The inhibition in test [11] was below 50%.
`O=C(Nc1ccccc1)c1ccc(-c2ccc(C(=O)Nc3ccccc3)s2)cc1`: the values for the IC50 in test [1] and in [2] were 3.52 µM and 5.75 µM, respectively.
